Where a SMILES comes first, the peptide text is derived from it. [ ]: non-standard residue; d: D form. dPhe(4-Cl) = N[C@H](Cc1ccc(Cl)cc1)C(=O)O; NMeL = CN[C@@H](CC(C)C)C(=O)O; pGlu = O=C1CC[C@@H](C(=O)O)N1; ΔPro = O=C(O)[C@@H]1C=CCN1

We go through 2 compounds from patent US4489061A, “Treatment of male mammals” (The Salk Institute for Biological Studies, priority 1982, dated 1984).

For one data set, the system named is male rats. Put plainly: 14-day daily injection in male rats: gonadal function, hormones, androgen-dependent behavior, fertility and recovery. The following applies: 1 milligram daily for 14 days. Type of data set: in vivo, rat. From the text:
The peptide is used at a level effective to reduce testes and seminal vesicles weights and also to inhibit spermatogenesis after a 14-day administration to male rats. […] Prostate weights of male rats recover in 2-3 weeks and seminal vesicles weights in 4-5 weeks. It is preferred to use dosage levels in the range of from about 0.1 to about 1 milligram per rat per day, which can be administered without detrimental side effects.
Male rats (about 320 grams each) are each treated with 1 milligram of the peptide synthesized in Example I, once a day, for 14 days by injection in 0.2 ml. of corn oil. All the rats show a decrease in testes and seminal vesicles weight, spermatogenesis and plasma androgen levels.
Full recovery of testes and seminal vesicle weights, androgen-dependent behavior and spermatogenesis ultimately occurs following cessation of the 14-day peptide administration. […] Fertility, as assessed by the ability to impregnate females, is restored in all of the rats which have not been sacrificed within 6 weeks after cessation of the injections.
A first group (I) of male rats (about 320 grams each) are each treated with 1 milligram of Peptide A synthesized in Example III, every day for 14 days, by injection in 0.2 ml. of corn oil. All the rats show a decrease in testes and seminal vesicles weight, spermatogenesis and plasma androgen levels. […]

For data set [1], the system named is release of gonadotropins by the pituitary gland. The settings on record: versus [des His2]-LRF; cited from earlier work.

As for `CC(=O)N1CC=C[C@H]1C(=O)N[C@H](Cc1ccc(Cl)cc1)C(=O)N[C@H](Cc1c[nH]c2ccccc12)C(=O)N[C@@H](CO)C(=O)N[C@@H](Cc1ccc(O)cc1)C(=O)N[C@H](Cc1c[nH]c2ccccc12)C(=O)N(C)[C@@H](CC(C)C)C(=O)N[C@@H](CCCNC(=N)N)C(=O)N1CCC[C@H]1C(=O)NCC(N)=O` [Example I, [Ac-dehydro Pro^1, pCl--D--Phe^2, D--Trp^3,6, NαMeLeu^7]-LRF] (Ac-[ΔPro][dPhe(4-Cl)][dW]SY[dW][NMeL]RPG-NH2), the “side effects / damage” value in the data set with male rats was “without harmful side effects or irreversible damage”.

In the case of “[pGlu]WSY[dA]LRPG-NH2 [[des His^2, D-Ala^6]-LRF]”, the “potency as inhibitor of the release of gonadotropins, relative to the same peptide with Gly in the 6-position” value in data set [1] is reported as 3 times more potent.
